# Laboratory results published in the supplement of paper PMC12513837.
# ± gives the standard deviation of the averaged measurements.
# Compound: CC(=O)N1CCc2c(c(N3CCCc4cc(-c5cnn(C)c5)c(C(F)F)cc43)nn2C2CCC(CN3CCN(c4ccc5c(c4)C(=O)N(C4CCC(=O)NC4=O)C5=O)CC3)CC2)C1 [CBPD-409]
# Experiment: AUC of viability dose-response curve (relative to vehicle, 8 doses up to 10 µM) (fraction); higher = less sensitive (more viable); extreme values may be limits of the assay
# Procedure: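 PRISM multiplexed pooled barcoded cell line viability screen at the Broad Institute, 887 cancer cell lines treated with CBPD-409 (p300/CBP PROTAC degrader) at 8 concentrations in threefold dilution, top dose 10 µM. The read-out is the area under the dose-response curve of relative viability versus vehicle (n=3). AUC < 0.3 is called strongly sensitive and AUC > 0.8 resistant.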
row,Test System,AUC of viability dose-response curve
1,KOPN8_HAEMATOPOIETIC_AND_LYMPHOID_TISSUE,0.704
2,8505C_THYROID,0.943
3,JMURTK2_SOFT_TISSUE,0.399
4,DOHH2_HAEMATOPOIETIC_AND_LYMPHOID_TISSUE,0.468
5,SNU423_LIVER,0.751
6,OCIM1_HAEMATOPOIETIC_AND_LYMPHOID_TISSUE,0.286
7,CASKI_CERVIX,0.376
8,MDAPCA2B_PROSTATE,0.266
9,ZR751_BREAST,0.411
10,GIMEN_AUTONOMIC_GANGLIA,0.616
11,NCIH1341_LUNG,1
12,CHLA200_CENTRAL_NERVOUS_SYSTEM,0.168
13,OCIC4P_OVARY,0.99
14,PEA1_OVARY,0.845
15,TE9_OESOPHAGUS,1
16,PANC0403_PANCREAS,0.725
17,FTC238_THYROID,0.734
18,AM38_CENTRAL_NERVOUS_SYSTEM,1
19,OCIAML5_HAEMATOPOIETIC_AND_LYMPHOID_TISSUE,0.461
20,SW579_THYROID,0.197
21,MONOMAC1_HAEMATOPOIETIC_AND_LYMPHOID_TISSUE,1
22,CORL88_LUNG,0.612
23,OE33_OESOPHAGUS,0.776
24,NIHOVCAR3_OVARY,1

row,Test System,AUC of viability dose-response curve
1,DU145_PROSTATE,0.946
2,SUM149PT_BREAST,0.789
3,OCILY18_HAEMATOPOIETIC_AND_LYMPHOID_TISSUE,0.451
4,RERFLCAD2_LUNG,0.946
5,GP5D_LARGE_INTESTINE,1
6,SUDHL8_HAEMATOPOIETIC_AND_LYMPHOID_TISSUE,0.726
7,CL34_LARGE_INTESTINE,0.812
8,NCIH1373_LUNG,1
9,A375_SKIN,0.47
10,KNS42_CENTRAL_NERVOUS_SYSTEM,0.413
11,PA1_OVARY,1
12,NCIH1568_LUNG,0.958
13,JHUEM7_ENDOMETRIUM,1
14,LOUNH91_LUNG,0.731
15,OSRC2_KIDNEY,1
16,HUH6_LIVER,1
17,COGN278_AUTONOMIC_GANGLIA,0.345
18,SW1573_LUNG,1
19,RCK8_HAEMATOPOIETIC_AND_LYMPHOID_TISSUE,0.633
20,KYSE510_OESOPHAGUS,0.928
21,RERFLCAI_LUNG,0.913
22,COLO800_SKIN,0.67
23,TEN_ENDOMETRIUM,0.726
24,COLO741_SKIN,0.559

row,Test System,AUC of viability dose-response curve
1,HCA1_CERVIX,0.811
2,MOLM14_HAEMATOPOIETIC_AND_LYMPHOID_TISSUE,0.212
3,UMUC10_URINARY_TRACT,0.511
4,NCIH2228_LUNG,0.91
5,PANC0203_PANCREAS,0.751
6,JMSU1_URINARY_TRACT,1
7,RCHACV_HAEMATOPOIETIC_AND_LYMPHOID_TISSUE,0.298
8,SW1990_PANCREAS,1
9,SKMEL5_SKIN,0.506
10,KYSE410_OESOPHAGUS,0.901
11,PECAPJ15_UPPER_AERODIGESTIVE_TRACT,0.917
12,ECC2_BILIARY_TRACT,0.402
13,HKA1_SKIN,1
14,OCILY19_HAEMATOPOIETIC_AND_LYMPHOID_TISSUE,0.725
15,94T778_SOFT_TISSUE,0.951
16,OE19_OESOPHAGUS,0.884
17,PMFKO14_LARGE_INTESTINE,0.705
18,BT549_BREAST,1
19,SW948_LARGE_INTESTINE,0.577
20,OVCAR8_OVARY,0.486
21,BFTC905_URINARY_TRACT,0.443
22,AU565_BREAST,1
23,SUIT2_PANCREAS,1
24,HEC1_ENDOMETRIUM,1

row,Test System,AUC of viability dose-response curve
1,HCT15_LARGE_INTESTINE,0.354
2,NCIH292_LUNG,0.831
3,SNU1_STOMACH,1
4,NCIH1975_LUNG,0.862
5,AN3CA_ENDOMETRIUM,0.693
6,ONS76_CENTRAL_NERVOUS_SYSTEM,0.922 ± 0.11
7,QGP1_PANCREAS,0.661
8,143B_BONE,1
9,SCABER_URINARY_TRACT,0.714
10,HS852T_SKIN,1
11,TOLEDO_HAEMATOPOIETIC_AND_LYMPHOID_TISSUE,0.416
12,CI1_HAEMATOPOIETIC_AND_LYMPHOID_TISSUE,0.674
13,G361_SKIN,0.186
14,COLO783_SKIN,0.837
15,GOS3_CENTRAL_NERVOUS_SYSTEM,0.79
16,H376_UPPER_AERODIGESTIVE_TRACT,0.862
17,HEC265_ENDOMETRIUM,0.695
18,CAL54_KIDNEY,0.502
19,BCPAP_THYROID,0.885
20,HCC1937_BREAST,0.957
21,KMS27_HAEMATOPOIETIC_AND_LYMPHOID_TISSUE,0.801
22,PFSK1_CENTRAL_NERVOUS_SYSTEM,0.531
23,ULA_HAEMATOPOIETIC_AND_LYMPHOID_TISSUE,0.813
24,TGW_AUTONOMIC_GANGLIA,0.673

row,Test System,AUC of viability dose-response curve
1,MCF7_BREAST,0.701
2,NCIH446_LUNG,0.445
3,A388_SKIN,0.978
4,NCIH1299_LUNG,0.79
5,MG63_BONE,1
6,SNU182_LIVER,0.274
7,JHH7_LIVER,0.291
8,NCIH2004RT_SOFT_TISSUE,1
9,BL2_HAEMATOPOIETIC_AND_LYMPHOID_TISSUE,0.77
10,SKMES1_LUNG,0.848
11,HL60_HAEMATOPOIETIC_AND_LYMPHOID_TISSUE,0.516
12,PK45H_PANCREAS,1
13,CAPAN2_PANCREAS,1
14,SNU410_PANCREAS,1
15,MELHO_SKIN,0.263
16,NCIH1650_LUNG,0.583
17,OV17R_OVARY,0.712
18,MS751_CERVIX,0.923
19,TGBC1TKB_BILIARY_TRACT,1
20,8305C_THYROID,0.823
21,KNS81_CENTRAL_NERVOUS_SYSTEM,1
22,CAS1_CENTRAL_NERVOUS_SYSTEM,0.665
23,8MGBA_CENTRAL_NERVOUS_SYSTEM,0.79
24,SSP25_BILIARY_TRACT,0.801

row,Test System,AUC of viability dose-response curve
1,SKMEL3_SKIN,0.818
2,KMS12BM_HAEMATOPOIETIC_AND_LYMPHOID_TISSUE,0.28
3,IGROV1_OVARY,0.956
4,HCC1395_BREAST,0.783
5,NCIH2347_LUNG,0.648
6,MFE296_ENDOMETRIUM,0.514
7,AGS_STOMACH,0.812
8,SW1710_URINARY_TRACT,0.8
9,SKMEL28_SKIN,0.575
10,UW228_CENTRAL_NERVOUS_SYSTEM,1
11,CAL72_BONE,0.839
12,TE10_OESOPHAGUS,0.501
13,EFM192A_BREAST,0.645
14,MM1S_HAEMATOPOIETIC_AND_LYMPHOID_TISSUE,0.328
15,SNU840_OVARY,1
16,TT_OESOPHAGUS,0.566
17,MP41_UVEA,0.212
18,MEL285_UVEA,0.639
19,A704_KIDNEY,0.942
20,HCC827_LUNG,0.731
21,SW480_LARGE_INTESTINE,1
22,HT29_LARGE_INTESTINE,0.633
23,SKNAS_AUTONOMIC_GANGLIA,1
24,KMS28BM_HAEMATOPOIETIC_AND_LYMPHOID_TISSUE,0.583
